Marks after values point to notes of the source that are not given here.
Legend:
[1] = pH recovery of calcium carbonate slurry after lowering to pH 8 with CO2 enriched air (Example 1); format: physicochemical
Excerpt: The pH of the aqueous suspension may be measured using any conventional pH meter. […] This may be carried out using either a manual or automatic method, depending on the type of instrument being used.
(§1) The pH of the aqueous suspension may be measured by: • mixing a sample of the aqueous suspension to ensure homogeneity, by using either the bench stirrer or the rotating rollers, or by shaking the sample container and contents vigorously; • measuring the temperature of the sample and adjusting the temperature to 22° C.; • removing the pH electrode from its deionised water storage solution and immersing it carefully into the test slurry; • waiting until a stable pH reading is obtained; • recording the pH value of the undisturbed slurry. Viscosity
1 kg samples of a calcium carbonate slurry having 78 wt % solids and 60% of particles less than 2 μm in size (measured using a micrometrics sedigraph) were adjusted to […] at room temperature using 2-amino-2-methyl-1-propanol (AMP) or dimethylethanolamine (DMEA). The control sample was adjusted to pH 10 using dilute sodium hydroxide solution. The solids content of the samples was adjusted using deionised water.
The pH of each slurry was lowered to pH 8 by aspirating the sample with carbon dioxide (CO2) enriched air (2%) using a flow rate of 5 mL/min. When pH 8 had been reached, aspiration of the sample was stopped.
Recovery of the sample pH was then monitored and recorded over subsequent days using the Mettler Toledo FE20 pH meter as described above in the detailed description.

[2] = pH of calcium carbonate slurry after sequential 50 mg/kg additions (Example 2); format: physicochemical; conditions: for δ pH: change per 50 mg/kg aliquot
Excerpt: The pH of the aqueous suspension may be measured using any conventional pH meter. For example, the pH of the aqueous suspension may be measured using the Digital pH meter “Mettler Toledo FE20”, which has been calibrated in accordance with the manufacturer's instructions, using buffer solutions with nominal values of 4, 7 and 9. This may be carried out using either a manual or automatic method, depending on the type of instrument being used.
as §1
50 mg/kg aliquots of either AMP or DMEA were sequentially added to 250 g calcium carbonate slurry samples having 78 wt % solids and 60% of particles less than 2 μm in size (measured using a micrometrics sedigraph). In this context, 50 mg/kg means that 50 mg of AMP or DMEA was added per kg of dry inorganic particulate material in the aqueous suspension. The pH of the samples was measured after stirring immediately after each 50 mg/kg addition.

[3] = tested on: microbes in contaminated calcium carbonate slurry; experiment: Total viable count of contaminated calcium carbonate slurry (Examples 3-5); format: cell-based, bacteria; conditions: for level of microbes compared with samples comprising no DMEA: 400, 500 and 600 ppm DMEA alone
Procedure: The microbe level, for example the total viable count, of the aqueous suspension may be measured using growth medium such as Petrifilm or dipslides. The material under test (for example the aqueous suspension of inorganic particulate material) is diluted with a buffer solution and a measured amount of the dilution is placed on a growth medium (for example, Petrifilm). This is incubated for 48 hours, after which time the number of colonies of bacteria is counted. Each colony has developed from one single bacterium or colony forming unit (cfu). Therefore, the number of colonies, multiplied by the dilution factor, is equivalent to the number of original colony forming units per gram or millilitre of slurry.
For example, the total viable count of an aqueous suspension may be measured by: • mixing a sample of aqueous suspension of inorganic particulate material thoroughly by shaking its container vigorously; • measuring the required weight or volume of the sample. For example, if the results are to be recorded as colony forming units per g (cfu/g), a container containing the buffer solution is placed on the balance and the balance is set to zero. Approximately 1 g of slurry is weighed into the container and its weight is recorded to within 0.1 g. The contents of the container are mixed by shaking it vigorously. If the results are to be recorded as colony forming units per ml (cfu/ml), 1 ml of slurry may be added to a container containing the buffer solution. The contents of the container are mixed by shaking it vigorously; • distributing the diluted sample evenly on the growth medium. The plate may be left undisturbed for at least one minute to allow the gel to solidify; • incubating the contents of the growth medium (for example Petrifilm plates) for 48 hours±2 hours at 30° C.±2° C.; • counting the number of colonies on the growth medium (for example Petrifilm); • calculating the total viable count of the sample by multiplying the number of colonies on the growth medium (for example Petrifilm) by the dilution factor and dividing this by the weight or volume of the sample which was plated on the growth medium. For example:
(§2) Samples of a contaminated calcium carbonate slurry having 78 wt % solids and 60% of particles less than 2 μm in size (measured using a micrometrics sedigraph) comprising various amounts of the biocide glutaraldehyde, and DMEA were prepared. The total viable count (cfu/ml) of each sample was measured after 0, 1 and 7 days by the method described above in the detailed description.
Samples of a contaminated calcium carbonate slurry having 78 wt % solids and 60% of particles less than 2 μm in size (measured using a micrometrics sedigraph) comprising various amounts of DMEA and the biocides benzisothiazolinone (BIT) and methylisothiazolinone (MIT) were prepared. The total viable count (cfu/ml) of each sample was measured after 0, 1 and 7 days by the method described above in the detailed description.
as §2, with “of” for “of the biocide glutaraldehyde, and”

[4] = day 0.5, lowered to pH 8 with CO2
[5] = total 50 mg/kg of chemical added
[6] = total 100 mg/kg of chemical added
[7] = total 150 mg/kg of chemical added
[8] = total 200 mg/kg of chemical added
[9] = total 250 mg/kg of chemical added
[10] = total 300 mg/kg of chemical added
[11] = total 350 mg/kg of chemical added
[12] = total 400 mg/kg of chemical added
[13] = total 450 mg/kg of chemical added
[14] = total 500 mg/kg of chemical added
[15] = total 550 mg/kg of chemical added
[16] = total 600 mg/kg of chemical added

CC(C)(N)CO [AMP, 2-amino-2-methyl-1-propanol, reference compound]
pH of sample ([1]; day 0, before CO2 aspiration): 9.50
δ pH ([1]; day 0.5): 0.00
pH of sample [1, 4]: 8.00
pH of sample ([1]; day 1): 8.16
δ pH ([1]; day 1): 0.13
pH of sample ([1]; day 2): 8.26
δ pH ([1]; day 2): 0.23
pH of sample ([1]; day 16): 8.46
δ pH ([1]; day 16): 0.43
pH of sample ([1]; day 20): 8.50
δ pH ([1]; day 20): 0.47
pH of sample ([1]; day 23): 8.52
δ pH ([1]; day 23): 0.49
pH of sample ([1]; day 24): 8.58
δ pH ([1]; day 24): 0.55
pH of sample ([1]; day 27): 8.61
δ pH ([1]; day 27): 0.58
pH of sample ([1]; day 28): 8.66
δ pH ([1]; day 28): 0.66
δ pH ([2]; total 50 mg/kg added): 0.27
pH of sample [2, 5]: 9.28
δ pH ([2]; total 100 mg/kg added): 0.21
pH of sample [2, 6]: 9.49
δ pH ([2]; total 150 mg/kg added): 0.15
pH of sample [2, 7]: 9.64
δ pH ([2]; total 200 mg/kg added): 0.14
pH of sample [2, 8]: 9.78
δ pH ([2]; total 250 mg/kg added): 0.14
pH of sample [2, 9]: 9.92
δ pH ([2]; total 300 mg/kg added): 0.09
pH of sample [2, 10]: 10.01
δ pH ([2]; total 350 mg/kg added): 0.07
pH of sample [2, 11]: 10.08
δ pH ([2]; total 400 mg/kg added): 0.07
pH of sample [2, 12]: 10.15
δ pH ([2]; total 450 mg/kg added): 0.07
pH of sample [2, 13]: 10.22
δ pH ([2]; total 500 mg/kg added): 0.05
pH of sample [2, 14]: 10.27
δ pH ([2]; total 550 mg/kg added): 0.05
pH of sample [2, 15]: 10.32
δ pH ([2]; total 600 mg/kg added): 0.05
pH of sample [2, 16]: 10.37

CN(C)CCO [DMEA, Dimethylethanolamine]
pH of sample ([1]; day 0, before CO2 aspiration): 10.00
δ pH ([1]; day 0.5): 0.00
pH of sample [1, 4]: 8.00
pH of sample ([1]; day 1): 8.22
δ pH ([1]; day 1): 0.22
pH of sample ([1]; day 2): 8.28
δ pH ([1]; day 2): 0.28
pH of sample ([1]; day 3): 8.35
δ pH ([1]; day 3): 0.35
pH of sample ([1]; day 4): 8.43
δ pH ([1]; day 4): 0.43
pH of sample ([1]; day 9): 8.52
δ pH ([1]; day 9): 0.52
pH of sample ([1]; day 11): 8.55
δ pH ([1]; day 11): 0.55
pH of sample ([1]; day 16): 8.58
δ pH ([1]; day 16): 0.58
pH of sample ([1]; day 20): 8.60
δ pH ([1]; day 20): 0.60
pH of sample ([1]; day 23): 8.64
δ pH ([1]; day 23): 0.64
pH of sample ([1]; day 24): 8.65
δ pH ([1]; day 24): 0.65
pH of sample ([1]; day 27): 8.70
δ pH ([1]; day 27): 0.70
pH of sample ([1]; day 28): 8.79
δ pH ([1]; day 28): 0.79
pH recovery compared with sample comprising AMP and control sample ([1]; recovery from pH 8): increased more rapidly and to a higher level
pH the sample increased to ([1]; recovery from pH 8, end of monitoring, control sample 8.3): 8.8
δ pH ([2]; total 50 mg/kg added): 0.25
pH of sample [2, 5]: 9.19
δ pH ([2]; total 100 mg/kg added): 0.17
pH of sample [2, 6]: 9.36
δ pH ([2]; total 150 mg/kg added): 0.13
pH of sample [2, 7]: 9.49
δ pH ([2]; total 200 mg/kg added): 0.11
pH of sample [2, 8]: 9.60
δ pH ([2]; total 250 mg/kg added): 0.07
pH of sample [2, 9]: 9.67
δ pH ([2]; total 300 mg/kg added): 0.07
pH of sample [2, 10]: 9.74
δ pH ([2]; total 350 mg/kg added): 0.06
pH of sample [2, 11]: 9.80
δ pH ([2]; total 400 mg/kg added): 0.05
pH of sample [2, 12]: 9.85
δ pH ([2]; total 450 mg/kg added): 0.05
pH of sample [2, 13]: 9.90
δ pH ([2]; total 500 mg/kg added): 0.05
pH of sample [2, 14]: 9.95
δ pH ([2]; total 550 mg/kg added): 0.04
pH of sample [2, 15]: 9.99
δ pH ([2]; total 600 mg/kg added): 0.02
pH of sample [2, 16]: 10.01
level of microbes compared with samples comprising no DMEA ([3]; after 0 days): slightly reduced the level of microbes
level of microbes compared with samples comprising no DMEA ([3]; after 1 day and 7 days): further reduced the level of microbes
Total Viable Count (cfu/ml) of sample as 10^x, x ([3]; 400 ppm DMEA in sample, 0 days after preparation): 5 cfu/ml as 10^x
Total Viable Count (cfu/ml) of sample as 10^x, x ([3]; 400 ppm DMEA in sample, 1 day after preparation): 4 cfu/ml as 10^x
Total Viable Count (cfu/ml) of sample as 10^x, x ([3]; 400 ppm DMEA in sample, 7 days after preparation): 0.1 cfu/ml as 10^x
Total Viable Count (cfu/ml) of sample as 10^x, x ([3]; 500 ppm DMEA in sample, 0 days after preparation): 5 cfu/ml as 10^x
Total Viable Count (cfu/ml) of sample as 10^x, x ([3]; 500 ppm DMEA in sample, 1 day after preparation): 4 cfu/ml as 10^x
Total Viable Count (cfu/ml) of sample as 10^x, x ([3]; 500 ppm DMEA in sample, 7 days after preparation): 0.1 cfu/ml as 10^x
Total Viable Count (cfu/ml) of sample as 10^x, x ([3]; 600 ppm DMEA in sample, 0 days after preparation): 5 cfu/ml as 10^x
Total Viable Count (cfu/ml) of sample as 10^x, x ([3]; 600 ppm DMEA in sample, 1 day after preparation): 4 cfu/ml as 10^x
Total Viable Count (cfu/ml) of sample as 10^x, x ([3]; 600 ppm DMEA in sample, 7 days after preparation): 0.1 cfu/ml as 10^x
reducing total viable count compared with glutaraldehyde alone ([3]; DMEA in combination with 50, 100 or 400 ppm glutaraldehyde, after 1 and 7 days): at least as effective
total viable count compared with glutaraldehyde alone ([3]; DMEA in combination with 50 ppm glutaraldehyde, after 0 days): lower total viable count
total viable count compared with BIT/MIT but no DMEA ([3]; DMEA in combination with 81, 162 or 650 ppm BIT/MIT, after 1 day and 7 days): lower total viable count

— patent publication US10590276B2, “Aqueous suspension of inorganic particulate material” (ImerTech SAS, priority 2013, dated 2020)
